Test system: PR8
Design: species or system mice
Details: mouse, in vivo

CCCCOC(=O)c1ccccc1C(=O)OCCCC [DBP, dibutylphthalate]
survival of a lethal dose of virus: mice survived a lethal dose of virus

From patent US20150307938A1, “METHOD TO IDENTIFY A NOVEL CLASS OF IMMUNOLOGIC ADJUVANTS” (Lancell, L.L.C., priority 2011, published 2015)
